pEC50: −log10 of the molar value. Like-named read-outs stand apart in the source and are kept apart here.
Tests used:
Type in all cases: cell-based
[1] = tested on: OV90; assay: Cell viability assay; conditions: Homo sapiens, OV-90, 24 h; OV90 (Others); read-out: AZD5991 24h GI50
Experimental: (§1) Cells were plated at 3000 cells/well in 384-well white plates in corresponding cell growth media. […] Caspase-3/7 activation was subsequently determined using a Caspase-Glo 3/7 Reagent (Promega) and viability was assayed using the CellTiter-Glo Reagent (Promega) as described in manufacturer’s instructions. Dose–response curves for caspase-3/7 activation and viability were plotted and analyzed (including EC50 and GI50 determination) using GraphPad Prism.

[2] = tested on: H446; assay: Cell viability assay; conditions: Homo sapiens, NCI-H446, 24 h; H446 (Lung); read-out: AZD5991 24h GI50
Experimental: as §1

[3] = tested on: HMCB; assay: Cell viability assay; conditions: Homo sapiens, 24 h; HMCB (Skin); read-out: AZD5991 24h GI50
Experimental: as §1

[4] = tested on: VAL; assay: Cell viability assay; conditions: 24 h; VAL (NHL); read-out: AZD5991 24h GI50
Experimental: as §1

[5] = tested on: KG1; assay: Caspase-3/7 activation assay; conditions: Homo sapiens, KG-1, 6 h
Experimental: as §1

[6] = tested on: KMS26; assay: Cell viability assay; conditions: KMS-26, 24 h; KMS26 (MM); read-out: AZD5991 24h GI50
Experimental: as §1

[7] = tested on: H322; assay: Cell viability assay; conditions: NCI-H322, 24 h; H322 (Lung); read-out: AZD5991 24h GI50
Experimental: as §1

[8] = tested on: JVM2; assay: Cell viability assay; conditions: Homo sapiens, JVM-2, 24 h; JVM2 (NHL); read-out: AZD5991 24h GI50
Experimental: as §1

[9] = tested on: Calu1; assay: Cell viability assay; conditions: Homo sapiens, Calu-1, 24 h; Calu1 (Lung); read-out: AZD5991 24h GI50
Experimental: as §1

[10] = tested on: Sudhl16; assay: Cell viability assay; conditions: Homo sapiens, SU-DHL-16, 24 h; Sudhl16 (NHL); read-out: AZD5991 24h GI50
Experimental: as §1

[11] = tested on: H1703; assay: Cell viability assay; conditions: Homo sapiens, NCI-H1703, 24 h; H1703 (Lung); read-out: AZD5991 24h GI50
Experimental: as §1

[12] = tested on: ML2; assay: Cell viability assay; conditions: Homo sapiens, ML-2, 24 h; ML2 (AML); read-out: AZD5991 24h GI50
Experimental: as §1

[13] = tested on: LP1; assay: Cell viability assay; conditions: Homo sapiens, LP-1, 24 h; LP1 (MM); read-out: AZD5991 24h GI50
Experimental: as §1

[14] = tested on: KG1; assay: Cell viability assay; conditions: Homo sapiens, KG-1, 24 h; KG1 (AML); read-out: AZD5991 24h GI50
Experimental: as §1

[15] = tested on: ME1; assay: Cell viability assay; conditions: ME-1, 24 h; ME1 (AML); read-out: AZD5991 24h GI50
Experimental: as §1

[16] = tested on: H2122; assay: Cell viability assay; conditions: Homo sapiens, NCI-H2122, 24 h; H2122 (Lung); read-out: AZD5991 24h GI50
Experimental: as §1

[17] = tested on: KMS11; assay: Cell viability assay; conditions: Homo sapiens, KMS-11, 24 h; KMS11 (MM); read-out: AZD5991 24h GI50
Experimental: as §1

[18] = tested on: OCIAML5; assay: Caspase-3/7 activation assay; conditions: Homo sapiens, OCI-AML-5, 6 h
Experimental: as §1

[19] = tested on: SBC5; assay: Cell viability assay; conditions: Homo sapiens, SBC-5, 24 h; SBC5 (Lung); read-out: AZD5991 24h GI50
Experimental: as §1

[20] = tested on: Pfeiffer; assay: Cell viability assay; conditions: Homo sapiens, 24 h; Pfeiffer (NHL); read-out: AZD5991 24h GI50
Experimental: as §1

[21] = tested on: MOLP8; assay: Cell viability assay; conditions: Homo sapiens, MOLP-8, 24 h; MOLP8 (MM); read-out: AZD5991 24h GI50
[22] = tested on: A101D; assay: Cell viability assay; conditions: Homo sapiens, 24 h; A101D (Skin); read-out: AZD5991 24h GI50
Experimental: as §1

[23] = tested on: NB4; assay: Cell viability assay; conditions: Homo sapiens, NB-4, 24 h; NB4 (AML); read-out: AZD5991 24h GI50
Experimental: as §1

[24] = tested on: A375; assay: Cell viability assay; conditions: Homo sapiens, A-375, 24 h; A375 (Skin); read-out: AZD5991 24h GI50
Experimental: as §1

[25] = tested on: SNU16; assay: Cell viability assay; conditions: Homo sapiens, SNU-16, 24 h; SNU16 (GI); read-out: AZD5991 24h GI50
Experimental: as §1

[26] = tested on: BT549; assay: Cell viability assay; conditions: Homo sapiens, BT-549, 24 h; BT549 (Breast); read-out: AZD5991 24h GI50
Experimental: as §1

[27] = tested on: Will2; assay: Cell viability assay; conditions: 24 h; Will2 (NHL); read-out: AZD5991 24h GI50
Experimental: as §1

[28] = tested on: L363; assay: Cell viability assay; conditions: Homo sapiens, L-363, 24 h; L363 (MM); read-out: AZD5991 24h GI50
Experimental: as §1

[29] = tested on: OCILY7; assay: Cell viability assay; conditions: Homo sapiens, OCI-Ly7, 24 h; OCILY7 (NHL); read-out: AZD5991 24h GI50
Experimental: as §1

[30] = tested on: HCC1954; assay: Cell viability assay; conditions: Homo sapiens, 24 h; HCC1954 (Breast); read-out: AZD5991 24h GI50
Experimental: as §1

[31] = tested on: MUTZ3; assay: Cell viability assay; conditions: 24 h; MUTZ3 (AML); read-out: AZD5991 24h GI50
Experimental: as §1

[32] = tested on: Raji; assay: Cell viability assay; conditions: Homo sapiens, 24 h; Raji (NHL); read-out: AZD5991 24h GI50
Experimental: as §1

Cc1c2c(nn1C)CSCc1cc(n(C)n1)CSc1cc(c3ccccc3c1)OCCCc1c(C(=O)O)n(C)c3c-2c(Cl)ccc13 (atropisomer, axis not shown; (Ra)) [(Ra)-7]
GI50 [1]: 22100 nM | GI50 [2]: 319 nM | GI50 [3]: 3000 nM | GI50 [4]: 102 nM | pEC50 ([5]; read-out: 6h caspase EC50, KG1, single agent): < 6.48 | pEC50 ([5]; read-out: AZD5991 6h EC50, KG1 (AML), caspase 3/7 activation): 6.29 | GI50 [6]: 141 nM | GI50 [7]: 17400 nM | GI50 [8]: 547 nM | GI50 [9]: > 30000 nM | GI50 [10]: 119 nM | GI50 [11]: 346 nM | GI50 [12]: 69 nM | GI50 [13]: 258 nM | GI50 [14]: 291 nM | GI50 [15]: 220 nM | GI50 [16]: 18700 nM | GI50 [17]: 540 nM | pEC50 ([18]; read-out: 6h caspase EC50, OCIAML5, single agent): < 6.48 | pEC50 ([18]; read-out: AZD5991 6h EC50, OCIAML5 (AML), caspase 3/7 activation): < 4.52 | GI50 [19]: 541 nM | GI50 [20]: 3370 nM | GI50 [21]: 52 nM | GI50 [22]: 175 nM | GI50 [23]: 292 nM | GI50 [24]: 13500 nM | GI50 [25]: 139 nM | GI50 [26]: 250 nM | GI50 [27]: 43 nM | GI50 [28]: 75 nM | GI50 [29]: 24 nM | GI50 [30]: 756 nM | GI50 [31]: 4 nM | GI50 [32]: 167 nM

Reference: publication PMC6297231 (Nature Communications, 2018)
